According to US20240132464A1, “HETEROCYCLIC COMPOUNDS AS E3 LIGASE INHIBITORS” (Accutar Biotechnology Inc., priority 2022, published 2024):

Target: T1, GID4 (Uniprot ID: Q81VV7, residues 124-289) (Homo sapiens, UniProt Q8IVV7)
T1 construct: GID4 (Uniprot ID: Q81VV7, residues 124-289)
T1 sequence (Q8IVV7 124-289): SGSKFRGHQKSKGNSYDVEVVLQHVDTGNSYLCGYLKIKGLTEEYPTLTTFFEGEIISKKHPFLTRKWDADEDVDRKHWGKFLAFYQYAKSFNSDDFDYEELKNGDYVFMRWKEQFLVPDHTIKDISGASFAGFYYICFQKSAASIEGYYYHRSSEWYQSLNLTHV
Assay: GID4 competitive binding assay (AlphaScreen, GID4/degron peptide PGLW)
Conditions: 24 nM GID4, 48 nM biotinylated degron peptide PGLW, 4° C., read-out: IC50 (Inhibition of GID4/Degron binding by test compounds)
Description: GID4 Competitive Binding Assay
GID4 binding affinity of compounds disclosed herein was measured by monitoring the interaction of GID4 with its degron peptide (PGLW) in the presence of the test compounds. A truncated version of GID4 (Uniprot ID: Q81VV7, residues 124-289) with a 6*His at its C-terminus was used in this assay. Tetrapeptide, PGLW, was synthesized and tagged with an additional lysine labeled with biotin at its sidechain.
GID4 competitive binding assays were performed in a 384-well plate at 4° C. in a 20 μL reaction volume. Briefly, 24 nM GID4 (final concentration) proteins were pre-incubated with 48 nM biotinylated degron peptide (final concentration) in an assay buffer containing 20 mM HEPES, pH 7.5, 100 mM NaCl, 1 mM DTT, 0.1% Tween-20, and 0.05% BSA in the presence of the test compound in 2% DMSO (final concentration) at various concentrations for 2 h. 5 ug/ml Streptavidin ALphaScreen donor beads and 5 ug/ml nickel chelate (Ni-NTA) ALphaScreen acceptor beads (PerkinElmer, 6760619C) (final concentrations) were then added to the mixture. After an incubation of 1 h at 4° C., the fluorescent signals were obtained on the EnVision® 2105 Multilabel Plate Reader (PerkinElmer).
Raw ALphaScreen data were converted to a percentage of inhibition (relative to DMSO) using the following equations: […]
For a given test compound concentration X:
Signal (X)=Signal (GID4 & peptide & compound)−Signal (GID4 & buffer & compound)
Percentage of inhibition at concentration X=[1−Signal(X)/Signal (DMSO)]*100% b)
The IC50 values were determined by nonlinear regression of plots of [inhibitor] vs. percentage of inhibition with variable slope.
Table 3 summarizes the inhibition of binding between GID4 and degron peptide with compounds of the present disclosure. Compounds were ranked into bins as follows for IC50: A indicates <500 nM; B indicates 500 nM-5000 nM; C indicates >5000 nM.

Structure (SMILES) | IC50 [nM]
CNc1cc(N2CCCC(c3cnc4ccccn34)C2)nc(C(C)C)n1 (single isomer, unassigned) [Compound 126, (R/S)-6-(3-(imidazo[1,2-a]pyridin-3-yl)piperidin-1-yl)-2-isopropyl-N-methylpyrimidin-4-amine] | < 500
CN(C)CCCNC(=O)c1cc(Cl)c(-c2cc(O)c3ncccc3c2)cc1Cl [Compound 322, 2,5-dichloro-N-(3-(dimethylamino)propyl)-4-(8-hydroxyquinolin-6-yl)benzamide] | < 500
Nc1nccc2ccc(Cc3cccc(C(=O)N4CCCC4)c3)cc12 [Compound 343, (3-((1-aminoisoquinolin-7-yl)methyl)phenyl)(pyrrolidin-1-yl)methanone] | > 5000
Nc1nccc2ccc(-c3ccc4[nH]nc(C(=O)N5CCC(N)CC5)c4c3)cc12 [Compound 339, (5-(1-aminoisoquinolin-7-yl)-1H-indazol-3-yl)(4-aminopiperidin-1-yl)methanone] | < 500
CC(C)c1nc(N2CCNC(c3cnc4ccccn34)C2)c2nc[nH]c2n1 (stereo not drawn) [Compound 373, 6-(3-(imidazo[1,2-a]pyridin-3-yl)piperazin-1-yl)-2-isopropyl-9H-purine] | < 500
CNc1cc(N2CCO[C@@H](c3ccccc3)C2)nc(N)n1 (racemic) [Compound 109, (S/R)-N4-methyl-6-(2-phenylmorpholino)pyrimidine-2,4-diamine] | 500 to 5000
CC(C)c1nc(N)cc(N2CCN[C@@H](c3ccccc3Br)C2)n1 (racemic) [Compound 75, (S/R)-6-(3-(2-bromophenyl)piperazin-1-yl)-2-isopropylpyrimidin-4-amine] | 500 to 5000
Nc1cc(N2CCCC(F)(c3ccccc3Br)C2)nc(N)n1 (stereo not drawn) [Compound 228, 6-(3-(2-bromophenyl)-3-fluoropiperidin-1-yl)pyrimidine-2,4-diamine] | 500 to 5000
Cc1nc(N)nc(N2CCCC(c3ccn[nH]3)C2)c1C (stereo not drawn) [Compound 214, 4-(3-(1H-pyrazol-5-yl)piperidin-1-yl)-5,6-dimethylpyrimidin-2-amine] | > 5000
Cc1c(-c2ccc(Br)c(C3CN(c4cc(C(C)C)nc(N)n4)CCN3)c2)cnn1C (single isomer, unassigned) [Compound 7, R or S-4-(3-(2-bromo-5-(1,5-dimethyl-1H-pyrazol-4-yl)phenyl)piperazin-1-yl)-6-isopropylpyrimidin-2-amine] | 500 to 5000
CN(C)CCCNC(=O)c1ccc(-c2cc(O)c3nc(N)ccc3c2)cc1 [Compound 261, 4-(2-amino-8-hydroxyquinolin-6-yl)-N-(3-(dimethylamino)propyl)benzamide] | < 500
CN(C)CCNC(=O)c1n[nH]c2ccc(-c3ccc4ncnc(N)c4c3)cc12 [Compound 329, 5-(4-aminoquinazolin-6-yl)-N-(2-(dimethylamino)ethyl)-1H-indazole-3-carboxamide] | 500 to 5000
Nc1nc(C2CC2)cc(N2CCN[C@@H](c3ccccc3Br)C2)n1 (stereo in doubt) [Compound 133, (S/R)-4-(3-(2-bromophenyl)piperazin-1-yl)-6-cyclopropylpyrimidin-2-amine] | 500 to 5000
CN(C)CCCNC(=O)c1c[nH]c(-c2cc(O)c3ncccc3c2)n1 [Compound 277, N-(3-(dimethylamino)propyl)-2-(8-hydroxyquinolin-6-yl)-1H-imidazole-4-carboxamide] | < 500
Nc1cc(Nc2cccc(-c3cnccn3)c2)nc(N)n1 [Compound 192, N4-(3-(pyrazin-2-yl)phenyl)pyrimidine-2,4,6-triamine] | 500 to 5000
Nc1cc(N2CCNC(c3cnc4ccccn34)C2)nc(N)n1 (racemic) [Compound 119, (S/R)-6-(3-(imidazo[1,2-a]pyridin-3-yl)piperazin-1-yl)pyrimidine-2,4-diamine] | > 5000
CC(C)c1cc(Nc2cccc(-c3cnccn3)c2)nc(N)n1 [Compound 198, 6-isopropyl-N4-(3-(pyrazin-2-yl)phenyl)pyrimidine-2,4-diamine] | > 5000
CNc1cc(N2CCN[C@@H](c3ccccc3)C2)nc(N)n1 (racemic) [Compound 129, (S/R)-N4-methyl-6-(3-phenylpiperazin-1-yl)pyrimidine-2,4-diamine] | 500 to 5000
CN(C)CCCNC(=O)c1nnc(-c2cc(O)c3ncccc3c2)[nH]1 [Compound 262, N-(3-(dimethylamino)propyl)-5-(8-hydroxyquinolin-6-yl)-4H-1,2,4-triazole-3-carboxamide] | < 500
CC(=O)N1CCN(c2cc(N)nc(NC3CC3)n2)CC1c1ccccc1Br (stereo not drawn) [Compound 52, 1-(4-(6-amino-2-(cyclopropylamino)pyrimidin-4-yl)-2-(2-bromophenyl)piperazin-1-yl)ethan-1-one] | 500 to 5000

Second part, the compound after the results:

IC50 [nM] | Structure (SMILES)
500 to 5000 | CC(C)c1cc(N2CCNC(c3cc(F)c(F)cc3Br)C2)nc(N)n1 (stereo not drawn) [Compound 170, 4-(3-(2-bromo-4,5-difluorophenyl)piperazin-1-yl)-6-isopropylpyrimidin-2-amine]
< 500 | CCOc1ccc(Br)c(C2CN(c3cc(N)nc(N)n3)CCN2)c1 (single isomer, unassigned) [Compound 24, (S/R)-6-(3-(2-bromo-5-ethoxyphenyl)piperazin-1-yl)pyrimidine-2,4-diamine]
> 5000 | CN(C)CCNC(=O)c1c[nH]c2ncc(-c3ccc4ccnc(N)c4c3)cc12 [Compound 8, 5-(1-aminoisoquinolin-7-yl)-N-(2-(dimethylamino)ethyl)-1H-pyrrolo[2,3-b]pyridine-3-carboxamide]
> 5000 | Nc1cc(N2CCCC(n3ncc4ccccc43)C2)nc(N)n1 (stereo not drawn) [Compound 89, 6-(3-(1H-indazol-1-yl)piperidin-1-yl)pyrimidine-2,4-diamine]
< 500 | CN(C)CCCNC(=O)c1cc(F)c(-c2cc(O)c3ncccc3c2)cc1F [Compound 316, N-(3-(dimethylamino)propyl)-2,5-difluoro-4-(8-hydroxyquinolin-6-yl)benzamide]
500 to 5000 | COC1CCN(C(=O)c2cccc(-c3ccc4ccnc(N)c4c3)c2)CC1 [Compound 346, (3-(1-aminoisoquinolin-7-yl)phenyl)(4-methoxypiperidin-1-yl)methanone]
< 500 | Nc1nccc2ccc(-c3ccc4[nH]nc(C(=O)NCCO)c4c3)cc12 [Compound 331, 5-(1-aminoisoquinolin-7-yl)-N-(2-hydroxyethyl)-1H-indazole-3-carboxamide]
500 to 5000 | CC(C)c1cc(N2CCNC(c3c[nH]c4ccccc34)C2)nc(N)n1 (stereo not drawn) [Compound 138, 4-(3-(1H-indol-3-yl)piperazin-1-yl)-6-isopropylpyrimidin-2-amine]
< 500 | CC(C)c1nc(N)cc(N2CCNC(c3ccccc3Br)C2)n1 (single isomer, unassigned) [Compound 76, (R/S)-6-(3-(2-bromophenyl)piperazin-1-yl)-2-isopropylpyrimidin-4-amine]
< 500 | CN1CCN(c2ccc(Br)c(C3CN(c4cc(N)nc(N)n4)CCN3)c2)CC1 (single isomer, unassigned) [Compound 50, R or S 6-(3-(2-bromo-5-(4-methylpiperazin-1-yl)phenyl)piperazin-1-yl)pyrimidine-2,4-diamine]
> 5000 | Nc1cc(N2CCOC(c3cnc4ccccn34)C2)nc(N)n1 (racemic) [Compound 136, (R/S)-6-(2-(imidazo[1,2-a]pyridin-3-yl)morpholino)pyrimidine-2,4-diamine]
500 to 5000 | CC(C)c1cc(N2CCCNC(c3ccccc3Br)C2)nc(N)n1 (stereo not drawn) [Compound 220, 4-(3-(2-bromophenyl)-1,4-diazepan-1-yl)-6-isopropylpyrimidin-2-amine]
< 500 | CC(C)c1nc(N2CCCC(c3cnc4ccccn34)C2)c2cc[nH]c2n1 (stereo not drawn) [Compound 374, 4-(3-(imidazo[1,2-a]pyridin-3-yl)piperidin-1-yl)-2-isopropyl-7H-pyrrolo[2,3-d]pyrimidine]
> 5000 | Nc1nc(N2CCCC(c3ccn[nH]3)C2)c2ccccc2n1 (stereo not drawn) [Compound 213, 4-(3-(1H-pyrazol-5-yl)piperidin-1-yl)quinazolin-2-amine]
> 5000 | Nc1nccc2c(O)cc(-c3cccc(C(=O)N4CCCC4)c3)cc12 [Compound 266, (3-(1-amino-5-hydroxyisoquinolin-7-yl)phenyl)(pyrrolidin-1-yl)methanone]
500 to 5000 | CCOc1ccc(Br)c(C2CN(c3cc(C(C)C)nc(N)n3)CCN2)c1 (single isomer, unassigned) [Compound 26, (S/R)-4-(3-(2-bromo-5-ethoxyphenyl)piperazin-1-yl)-6-isopropylpyrimidin-2-amine]
